Data on two compounds can be found in publication PMC4729137, “Functional analysis of androgen receptor mutations that confer anti-androgen resistance identified in circulating cell-free DNA from prostate cancer patients” (Genome Biology, 2016).

Changes are numbered by the printed parent chain.

For one experiment, the target named is T1, L882I-AR (Homo sapiens, UniProt P10275, L882I).
T1 sequence (P10275 1-920 L882I): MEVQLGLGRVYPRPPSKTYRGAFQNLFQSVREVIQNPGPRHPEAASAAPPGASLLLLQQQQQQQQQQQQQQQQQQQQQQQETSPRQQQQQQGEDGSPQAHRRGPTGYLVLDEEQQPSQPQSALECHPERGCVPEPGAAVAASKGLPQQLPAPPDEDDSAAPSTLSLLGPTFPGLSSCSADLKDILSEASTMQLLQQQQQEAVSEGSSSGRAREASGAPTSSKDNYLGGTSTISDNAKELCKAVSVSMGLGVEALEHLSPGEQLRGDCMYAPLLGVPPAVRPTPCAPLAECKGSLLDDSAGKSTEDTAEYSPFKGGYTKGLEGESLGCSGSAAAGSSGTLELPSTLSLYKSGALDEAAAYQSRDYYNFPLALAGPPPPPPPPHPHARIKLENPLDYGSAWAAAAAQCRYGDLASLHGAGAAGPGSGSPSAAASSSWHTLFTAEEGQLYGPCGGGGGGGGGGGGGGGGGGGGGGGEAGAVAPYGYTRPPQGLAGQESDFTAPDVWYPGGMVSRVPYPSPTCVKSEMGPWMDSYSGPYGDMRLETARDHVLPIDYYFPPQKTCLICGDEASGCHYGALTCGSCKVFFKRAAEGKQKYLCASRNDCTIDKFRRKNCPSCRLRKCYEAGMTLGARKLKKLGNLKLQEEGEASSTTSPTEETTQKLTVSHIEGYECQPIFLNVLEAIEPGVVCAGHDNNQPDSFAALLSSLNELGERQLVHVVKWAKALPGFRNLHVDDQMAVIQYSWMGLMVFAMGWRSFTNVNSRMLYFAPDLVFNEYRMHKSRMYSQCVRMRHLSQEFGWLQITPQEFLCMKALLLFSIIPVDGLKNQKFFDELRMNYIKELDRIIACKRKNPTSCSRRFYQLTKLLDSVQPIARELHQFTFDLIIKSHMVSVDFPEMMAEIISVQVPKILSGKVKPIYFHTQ
It is filed as cell-based. The following applies: AR mutant L882I; transfected PC3 cells; 0.1 nM R1881; drug 0 to 50 μM. The text has this: Full-length human AR (WT-AR) was encoded on a pcDNA3.1 expression plasmid (Life technologies). The LBD point mutations (single and multiple) were generated using the QuikChange II Site-Directed Mutagenesis Kit (Agilent Technologies) as per manufacturer’s instructions using WT-AR as the template. The mutagenic oligonucleotide primers were designed individually with the desired mutation in the middle of the primer with approximately 10 to 15 bases of correct sequence on both sides.
PC3 cells were seeded and transfected as described above. […] A non-stimulated/no R1881 control was used. After 24 h, cells were lysed and AR-dependent luciferase activity was quantified. Each concentration was assayed in quadruplicate n = 4, with a biological replicate of n = 3. Results were averaged and normalized by expressing them as a percentage of WT AR activity.

Another experiment has as its target T2, E894K-AR (Homo sapiens, UniProt P10275, E894K).
T2 sequence (P10275 1-920 E894K): T1 sequence (P10275 1-920 L882I) with I882L, E894K
The experiment is described as follows: cell-based.

With `CC(C)(O)C(=O)Nc1ccc([N+](=O)[O-])c(C(F)(F)F)c1` [Hydroxyflutamide, hydroxyflutamide], the “Agonist response to treatment” value at L882I-AR is on record as “Partial”.

In general, EC50 refers to the concentration needed to bring the measured effect to its halfway point. High values mean lower potency in that assay, low ones higher potency in that assay. `C[C@]12CCC(=O)C=C1CC[C@@H]1[C@@H]2[C@@H](O)C[C@@]2(C)[C@H]1CC[C@]2(O)C(=O)CO` [hydrocortisone]: at E894K-AR, the EC50 is above 500 nM.
